Experimental findings from the AptaBench aptamer set (doi:10.1093/nar/gkaf219) are described below.

What all share (details): 10 mM Tris-HCl, pH 7.4
Experiment [1] concerns DNA aptamer or structured DNA CTTACGACAGTAACGGTGGGTATATGGGATTTATGTTCGTCGTAAG
Experiment [2] deals with DNA aptamer or structured DNA CTTACGACCATGGGTGTTTGCACTAAGTCCGGTTCTTGGTCGTAAG
Experiment [3] concerns DNA aptamer or structured DNA CTTACGACGACCTATTGGGGGTAGTTATAGTTGGGTGAGTCGTAAG
Experiment [4] relates to DNA aptamer or structured DNA GGGACGACAAGTCAGGCCTGTCTCAGCGAGTTCGACATGTCGTCCC
In experiment [5] the test system is DNA aptamer or structured DNA GGGACGACATGCGTCGAAAAGACCCCTGAGGGCAGCTGGTCGTCCC
For experiment [6], the system named is DNA aptamer or structured DNA GGGACGACCCGTAGGGGTACACGCTCTATGGGGGCTGGGTCGTCCC
Experiment [7] has as its system DNA aptamer or structured DNA GGGACGACGGGGGGAGTAATGTTTGTGTGGGGGAGCCGGTCGTCCC
Experiment [8] has as its system DNA aptamer or structured DNA GGGACGACTAGCCCTAGCGTTGTTCGAGTCCATGAGTAGTCGTCCC
Experiment [9] deals with DNA aptamer or structured DNA GGGACGACTAGCCGTGGCGTTGTTCGAGTGCAGCGAGTAGTCGTCCC
For experiment [10], the system named is DNA aptamer or structured DNA TTCAAATCTAGCGCAGGTAGGGGTGTAGGCGTGGGGGTAAGTCTAGATTTGAA
Experiment [11] concerns DNA aptamer or structured DNA CTTACGACAGGTTCTGAGGAATCAACGTCGGTGTAGTTGTCGTAAG
In experiment [12] the test system is DNA aptamer or structured DNA CTTACGACTAGTTCTGAGGAATCAACGTCGGTGTAGTTGTCGTAAG
For experiment [13], the system named is DNA aptamer or structured DNA CTTACGACTTACTTTTGGGTTGTCTGGGTGGGAGGTATGTCGTAAG
The subject of experiment [14] is DNA aptamer or structured DNA GGGACGACAGGGATTCGCGGATTCGGAGAAAAGGGCTCGTACGTCGTCCC
Experiment [15] relates to DNA aptamer or structured DNA GGGACGACAGGGATTCGGTCTTGGTACATAGGGGCCTCGTCTGTCGTCCC
Experiment [16] deals with DNA aptamer or structured DNA GGGACGACCGGCTGTCTGGATGCATTGCGCCGGGAACTCGGACGGATGGTCGTCCC
Experiment [17] relates to DNA aptamer or structured DNA GGGACGACCGTCCGAGTTTTAGGAGTGGTTGCATTGCGCTGGGAAGAGGTCGTCCC
Experiment [18] has as its system DNA aptamer or structured DNA GGGACGACGGGGATTCGCGGATTCATGGAAAAGGGCTCGTCTGTCGTCCC
Experiment [19] has as its system DNA aptamer or structured DNA GGGACGACGGGGGGCTTTAGGGTGTAGGAGTGGGGTGAGTCGTCCC
For experiment [20], the system named is DNA aptamer or structured DNA GGGACGACTACAGGTCGTGCGTCGCTCGAGTTGGTGAGTGTGTCGTCCC
Experiment [21] deals with DNA aptamer or structured DNA GGGACGACTAGTGCCTTCGCGCTGTGCGGGAATCCGGTTCTGTCGTCCC
For experiment [22], the system named is DNA aptamer or structured DNA GGGACGACTAGTGCCTTCGCGTTGTACGGGAATCCGGTTCTGTCGTCCC
For experiment [23], the system named is DNA aptamer or structured DNA GGGACGACTAGTGCCTTCGCGTTGTTCAGGAATCCGGTTCTGTCGTCCC
Experiment [24] has as its system DNA aptamer or structured DNA TTCAAATCTGCGGCGACTAATTCTTAGTGGTGGTTGCAATGCGCTGGGATGAGTCTAGATTTGAA
In experiment [25] the test system is DNA aptamer or structured DNA GGGACGACATCGTAGGGGCACACGCTTAACGGGCTGATGTCGTCCC
The test system of experiment [26] is DNA aptamer or structured DNA GGGACGACGCGTACCATGGGTAGTTGCACGTCGTCCAAGTCGTCCC
For experiment [27], the system named is DNA aptamer or structured DNA GGGACGACGGGAAGGTTGGCAGCGCATCGTCGGGTCACGTCGTCCC
Experiment [28] has as its system DNA aptamer or structured DNA GGGACGACTAGCCGCGCGTTGTCCGACCCTTGGAAGTAGTCGTCCC
Experiment [29] deals with DNA aptamer or structured DNA GGGACGACTGGCGCCGGATTCCCTAAGGTACACGGACTGTCGTCCC
The subject of experiment [30] is DNA aptamer or structured DNA CTTACGACCTAAGGGTCTGGAGTGGTTGTTATACGCTGGTCGTAAG
For experiment [31], the system named is DNA aptamer or structured DNA GGGACGACAGGGCACGTCTCGGCATCGAGGGTTTCGCGGTCGTCCC
In experiment [32] the test system is DNA aptamer or structured DNA GGGACGACGGTTGGCATTGGGTCGGGTGTGGGTGCGGCGTCGTCCC
Experiment [33] deals with DNA aptamer or structured DNA GGGACGACGGCACGAGGTTAATCGTTGGTTGCACTGCGCTGGGAGGCAGTCGTCCC
Experiment [34] concerns DNA aptamer or structured DNA GGGACGACGGCACGAGGTTATTCGTTGGTTGCACTGCGCTGGGAGGAAGTCGTCCC
For binding call in this document: call rule not given here.

As to `CCOC(=O)c1ccc(N)cc1`, the binding call in experiment [1], in experiment [2], in experiment [3], in [4], in experiment [5] and in experiment [6] was “no binding” each time. In addition, the binding call in [7], in experiment [8], in experiment [9] and in experiment [10] was “no binding” each time.
In the case of `NCCc1c[nH]c2ccc(O)cc12`, the binding call in [11], in experiment [3], in [12], in experiment [13], in [14] and in experiment [15] was “no binding” in each case. Further, the binding call is “no binding” in experiment [16]; “binds” in experiment [17]; “no binding” in [18]; “no binding” in experiment [19]; “no binding” in [20]; “binds” in experiment [21]. In addition, the binding call in experiment [22], in [23], in [10] and in [24] was “no binding” throughout.
For the molecule `O=C1CC[C@@]2(O)[C@H]3Cc4ccc(O)c5c4[C@@]2(CCN3CC2CC2)[C@H]1O5`, the binding call in experiment [4], in experiment [14], in [15], in experiment [25], in experiment [5] and in [6] was “no binding” each time. Further, the binding call in experiment [26], in experiment [27], in experiment [18], in experiment [20], in [8] and in experiment [28] was “no binding” in each case. The binding call in experiment [9], in experiment [22], in [23] and in experiment [29] was “no binding” throughout.
For the molecule `CC(=O)Oc1ccc2c3c1O[C@H]1[C@@H](OC(C)=O)C=C[C@H]4[C@@H](C2)N(C)CC[C@@]341`, the binding call in [2], in experiment [30], in [13], in experiment [19] and in experiment [32] was “no binding” throughout. The Kd turned out to be 4.74 µM in experiment [31]; 1.11 µM in experiment [5]; 5.62 µM in experiment [26]; 2.4 µM in experiment [27]; 3.31 µM in [8]; 3.11 µM in experiment [28]. Moreover, in experiment [9], the Kd was 2.11 µM.
For `CN[C@@H](C)Cc1ccccc1`, the binding call in [11], in experiment [2], in experiment [3], in [13], in experiment [4] and in experiment [5] was “no binding” in each case. Moreover, the binding call in experiment [26], in [19], in experiment [32], in experiment [9] and in experiment [10] was “no binding” in each case. Also, the Kd in [16] stood at 8.9 µM; in experiment [17], 4.9 µM; in experiment [33], 6.4 µM; in experiment [34], 3.3 µM; in experiment [21], 7.5 µM; in [24], 5.67 µM.
